# Literature values as cited in US20060024740A1 (priority 2002, published 2006).
# Tests used:
# Tapesia acuformis = tested on: Tapesia acuformis; parameters: key: S = Sensitive; R = Resistant
# Tapesia yallundae = tested on: Tapesia yallundae; parameters: key: S = Sensitive; R = Resistant
Compound,Fungicide Sensitivity (Tapesia acuformis),Fungicide Sensitivity (Tapesia yallundae)
Cc1cc(C2CC2)nc(Nc2ccccc2)n1 [Cyprodinil],S,S
"COC(=O)Nc1nc2ccccc2[nH]1 [Carbendazim, carbendazim]",S and R,R
CCCN(CCOc1c(Cl)cc(Cl)cc1Cl)C(=O)n1ccnc1 [Prochloraz],S and R,R and S
"CC(C)(C)C(O)C(Oc1ccc(Cl)cc1)n1cncn1 (centres unmarked) [Triadimenol, triadimenol]",R,R and S
